Species: Rattus norvegicus
Test: DrugMatrix - Regimen: Daily Repeat
Type: toxicity, organism-based, Sprague-Dawley
Parameters: regimen Daily Repeat, gender Male, age 6-8 weeks
Settings: in vivo, po, 35 mg/kg, route oral GAVAGE, dose level Low, vehicle .5 % CMC; for ABSOLUTE BASOPHIL / ABSOLUTE EOSINOPHIL / ABSOLUTE LYMPHOCYTE / ABSOLUTE MONOCYTE / ABSOLUTE SEGMENTED NEUTROPHIL / BASOPHIL / EOSINOPHIL / ERYTHROCYTE COUNT / HEMATOCRIT / HEMOGLOBIN / LEUKOCYTE COUNT / LYMPHOCYTE / MEAN CORPUSCULAR HEMOGLOBIN / MEAN CORPUSCULAR HEMOGLOBIN CONCENTRATION / MEAN CORPUSCULAR VOLUME / MONOCYTE / NEUTROPHIL / NUCLEATED RED BLOOD CELLS / PLATELET COUNT: tissue Blood; for ALANINE AMINOTRANSFERASE / ALBUMIN / ALKALINE PHOSPHATASE / ASPARTATE AMINOTRANSFERASE / BLOOD UREA NITROGEN / CARBON DIOXIDE / CHLORIDE / CHOLESTEROL / CREATINE PHOSPHOKINASE / CREATININE / GLUCOSE / LACTATE DEHYDROGENASE / LIPASE / PHOSPHORUS / POTASSIUM / SODIUM / TOTAL BILIRUBIN / TOTAL PROTEIN / URIC ACID: tissue Plasma

## COC(=O)C1=C(C)NC(C)=C(C(=O)OC)C1c1ccccc1[N+](=O)[O-] [NIFEDIPINE]
72 h, time 3 day
  ABSOLUTE BASOPHIL: 0 CELLS/uL
  ABSOLUTE EOSINOPHIL: 0 CELLS/uL
  ABSOLUTE LYMPHOCYTE: 17514.67 CELLS/uL
  ABSOLUTE MONOCYTE: 172 CELLS/uL
  ABSOLUTE SEGMENTED NEUTROPHIL: 1213.33 CELLS/uL
  BASOPHIL: 0%
  EOSINOPHIL: 0%
  ERYTHROCYTE COUNT: 5.2 x10E6/uL
  HEMATOCRIT: 33.43%
  HEMOGLOBIN: 12.8 G/DL
  LEUKOCYTE COUNT: 18.9 x10E3/uL
  LYMPHOCYTE: 92.67%
  MEAN CORPUSCULAR HEMOGLOBIN: 24.63 pg
  MEAN CORPUSCULAR HEMOGLOBIN CONCENTRATION: 38.27 G/DL
  MEAN CORPUSCULAR VOLUME: 64.3 fL
  MONOCYTE: 1%
  NEUTROPHIL: 6.33%
  NUCLEATED RED BLOOD CELLS: 0.33 /100WBC
  PLATELET COUNT: 1358.33 x10E3/uL
  ALANINE AMINOTRANSFERASE: 46 u/L
  ALBUMIN: 4.37 G/DL
  ALKALINE PHOSPHATASE: 361.33 u/L
  ASPARTATE AMINOTRANSFERASE: 91.33 u/L
  BLOOD UREA NITROGEN: 21.67 mg/dL
  CARBON DIOXIDE: 24 mmol/L
  CHLORIDE: 106.33 MEQ/L
  CHOLESTEROL: 90.67 mg/dL
  CREATINE PHOSPHOKINASE: 276 u/L
  CREATININE: 0.31 mg/dL
  GLUCOSE: 142.67 mg/dL
  LACTATE DEHYDROGENASE: 570 u/L
  LIPASE: 11 u/L
  PHOSPHORUS: 11.77 mg/dL
  POTASSIUM: 6.88 MEQ/L
  SODIUM: 148.6 MEQ/L
  TOTAL BILIRUBIN: 0.2 mg/dL
  TOTAL PROTEIN: 6.2 G/DL
  URIC ACID: 1.67 mg/dL
120 h, time 5 day
  ABSOLUTE BASOPHIL: 0 CELLS/uL
  ABSOLUTE EOSINOPHIL: 0 CELLS/uL
  ABSOLUTE LYMPHOCYTE: 11212.33 CELLS/uL
  ABSOLUTE MONOCYTE: 196 CELLS/uL
  ABSOLUTE SEGMENTED NEUTROPHIL: 1358.33 CELLS/uL
  BASOPHIL: 0%
  EOSINOPHIL: 0%
  ERYTHROCYTE COUNT: 6.29 x10E6/uL
  HEMATOCRIT: 40.53%
  HEMOGLOBIN: 14.9 G/DL
  LEUKOCYTE COUNT: 12.77 x10E3/uL
  LYMPHOCYTE: 88.33%
  MEAN CORPUSCULAR HEMOGLOBIN: 23.67 pg
  MEAN CORPUSCULAR HEMOGLOBIN CONCENTRATION: 36.77 G/DL
  MEAN CORPUSCULAR VOLUME: 64.4 fL
  MONOCYTE: 1.33%
  NEUTROPHIL: 10.33%
  NUCLEATED RED BLOOD CELLS: 0 /100WBC
  PLATELET COUNT: 1155 x10E3/uL
  ALANINE AMINOTRANSFERASE: 57 u/L
  ALBUMIN: 4.5 G/DL
  ALKALINE PHOSPHATASE: 414.33 u/L
  ASPARTATE AMINOTRANSFERASE: 79.67 u/L
  BLOOD UREA NITROGEN: 19 mg/dL
  CARBON DIOXIDE: 23 mmol/L
  CHLORIDE: 104 MEQ/L
  CHOLESTEROL: 81.67 mg/dL
  CREATINE PHOSPHOKINASE: 210 u/L
  CREATININE: 0.21 mg/dL
  GLUCOSE: 163.67 mg/dL
  LACTATE DEHYDROGENASE: 114.33 u/L
  LIPASE: 10 u/L
  PHOSPHORUS: 13.37 mg/dL
  POTASSIUM: 7.57 MEQ/L
  SODIUM: 147 MEQ/L
  TOTAL BILIRUBIN: 0.27 mg/dL
  TOTAL PROTEIN: 6.5 G/DL
  URIC ACID: 2 mg/dL

Source: ChEMBL document CHEMBL3885881, “DrugMatrix”
